These are literature values, as cited in patent publication US20230398047A1, “COMPOSITION COMPRISING SKIN CARE ACTIVE INGREDIENT AND TWO POLYGLYCERYL FATTY ACID ESTERS” (L'OREAL, priority 2021, published 2023).

Structures are written as SMILES.

For this data set the following is noted: octan-1-ol/water; values said to be known or calculated.

For the compound `CCOC1=C(O)C(=O)O[C@@H]1[C@@H](O)CO` [3-O-ETHYL ASCORBIC ACID, 3-O-ethyl ascorbic acid], the logP was 3-O-ETHYL ASCORBIC ACID (LogP = −1.3). On to `O=C1O[C@H]([C@@H](O)CO)C(O)=C1O[C@H]1O[C@H](CO)[C@@H](O)[C@H](O)[C@H]1O` [ASCORBYL GLUCOSIDE, ascorbyl glucoside], for which the logP entry is recorded as “ASCORBYL GLUCOSIDE (logP = −3.4)”. `CC(O)C[C@H]1OC[C@@H](O)[C@H](O)[C@H]1O` (stereo partly drawn) [HYDROXYPROPYL TETRAHYDROPYRANTRIOL, C-beta-D-xylopyranoside-2-hydroxpropane]: the logP result is “HYDROXYPROPYL TETRAHYDROPYRANTRIOL (logP = −1.5)”. For `NC(=O)c1cccnc1` [NIACINAMIDE, niacinamide, reference compound], the logP entry is listed as “NIACINAMIDE (LogP = −0.37)”. For the compound `CC(c1ccccc1)c1ccc(O)cc1O` (centres unmarked) [PHENYLETHYL RESORCINOL, 4-(1-phenylethyl)-1,3-benzenediol], the logP entry was “PHENYLETHYL RESORCINOL(logP = 3.07)”.
